Test results from patent publication US11253566B2, “Composition for ameliorating, or treating depression and anxiety disorder comprising Fraxinus rhynchophylla extract as effective ingredient” (priority 2017, dated 2022).

Tests used:
[1] = Bodyweight change in mouse with induced depression and anxiety disorder; type: in vivo; details: 150 mg/kg doxepin, Day 7 or Day 14, vs control group
Method: (§1) Fraxinus rhynchophylla extract was dissolved in physiological saline to have a concentration of 100 mg/kg for each, and then aliquoted. One hour before applying the stress for 14 days, the sample was administered via an oral route.
(§2) A 7-week old male C57BL/6 mouse was acclimated for 1 week, and then exposed to a stress everyday between 10:00 to 14:00 o'clock. Specifically, 1 hour after the oral administration of a sample, an electric shock with strength of 0.5 mA was applied to the foot sole of the mouse for 1 sec with an interval of 10 seconds, for 2 minutes in total, by using a shuttle box (JD-SI-10, JEUNG DO BIO & PLANT CO, LTD, Seoul, S. Korea). […]
A change in body weight caused by administration of the ethanol extract of Fraxinus rhynchophylla of the present invention was determined in the animal model with induced depression and anxiety disorder. Specifically, the bodyweight of a mouse was measured, before the exposure to stress (Day 0), or on Day 7 or Day 14 after the exposure to stress for the normal group, the control group (i.e., group induced with depression and anxiety disorder), the test group (i.e., group administered with the ethanol extract of Fraxinus rhynchophylla of the present invention), and the positive control group (i.e., group administered with doxepin) (FIG. 6). […]

[2] = system: C57BL/6 mouse with induced depression and anxiety disorder; assay: Open field test (OFT); type: in vivo; details: 150 mg/kg doxepin for 14 days, test on Day 15, vs control group
Method: as §1, §2
Open field test is to determine the degree of anxiety, which is one symptom of depression, by measuring the voluntary movement of a mouse after entering an unfamiliar field for the first time. At the center (15 cm×15 cm) of an open box with a dimension of 30 cm×30 cm×30 cm, which is made of white acryl, a C57BL/6 mouse which has been induced to have depression and anxiety disorder was placed, and then total travel distance and frequency of center entry for 10 minutes were measured. For the measurement, after recording using a video camera, the overall movement of the C57BL/6 mouse was analyzed by using Video tracking software (SMART 3.0, Panlab, Spain). […]

[3] = system: C57BL/6 mouse with induced depression and anxiety disorder; assay: Forced swim test (FST); type: in vivo; details: 150 mg/kg doxepin for 14 days, test on Day 15, vs control group
Method: as §1
as §2, with “Korea). After applying the electric shock, the mouse was put to a hemicylindrical restraining device (JD-R 05A, JEUNG DO BIO & PLANT CO, LTD, Seoul, S. Korea) made of 30 mm-thick acryl, one animal in each device, and then restrained in the immobile state for 2 hours.” for “Korea).”
Forced swim test is a test to determine despair among the symptoms of depression, and the immobility of a mouse was checked using a cylinder having a depth which prevents the animal from touching its paws or tail to the floor of the cylinder. […] Then, the immobility time during 4 minutes, i.e., excluding initial 2 minutes as adaptation period from the total 6 minutes, was measured.

cortisol = assay: Cortisol level in blood serum (ELISA); type: in vivo, mouse; details: 150 mg/kg doxepin for 14 days, blood on Day 17, vs control group
Method: as §1
(§3) A 7-week old male C57BL/6 mouse was acclimated for 1 week, and then exposed to a stress everyday between 10:00 to 14:00 o'clock. Specifically, 1 hour after the oral administration of a sample, an electric shock with strength of 0.5 mA was applied to the foot sole of the mouse for 1 sec with an interval of 10 seconds, for 2 minutes in total, by using a shuttle box (JD-SI-10, JEUNG DO BIO & PLANT CO, LTD, Seoul, S. Korea). After applying the electric shock, the mouse was put to a hemicylindrical restraining device (JD-R 05A, JEUNG DO BIO & PLANT CO, LTD, Seoul, S. Korea) made of 30 mm-thick acryl, one animal in each device, and then restrained in the immobile state for 2 hours.
(§4) In addition, for the control group, the 12-hour day and night cycle was maintained, but light illumination was applied to the test group for 24 hours to disrupt the regular living pattern, and thus a sleep-interfering environment was created (FIG. 5).
The cortisol level in blood serum separated from each test animal was measured. […] Absorbance at 405 nm was then measured.

serotonin = assay: Serotonin level in blood serum (ELISA); type: in vivo, mouse; details: 150 mg/kg doxepin for 14 days, blood on Day 17, vs control group
Method: as §1, §3, §4
The serotonin level in blood serum separated from each test animal was measured. […] Upon the completion of the reaction, absorbance at a wavelength of 405 nm was measured by using a microplate reader.

pCREB = assay: Expression ratio of pCREB protein in hippocampal tissues (Western blot); type: in vivo, mouse; details: 150 mg/kg doxepin for 14 days, tissues on Day 17, vs control group
BDNF and mBDNF = assay: Expression of BDNF and mBDNF in hippocampal tissues (Western blot); type: in vivo, mouse; details: 150 mg/kg doxepin for 14 days, tissues on Day 17, vs control group
Method: as §1
as §3, with “hours. […]” for “hours.”
Protein expression pattern in brain hippocampal tissues which have been collected from each test animal was determined by Western blot analysis. […] After obtaining the protein amount in each sample, the protein was quantified to 1 μg/μl, and then the expression amount of protein was measured by using Mini PROTEAN TGX Gels.

In the case of `CN(C)CCC=C1c2ccccc2COc2ccccc21` [doxepin], the “bodyweight (gain rate)” value [1] is reported as “increased in statistically significant sense”, the “number of center entry” value [2] is reported as “increased in statistically significant sense” and the “travel distance within the center zone” value [2] is reported as “increase in statistically significant sense”. The immobility time [3] was “decreased in statistically significant sense”, the blood cortisol level (cortisol) was “decreased in statistically significant sense” and the “serotonin hormone level in blood” value (serotonin) was “increased in statistically significant sense”. The “expression ratio of pCREB protein (pCREB/CREB) in hippocampal tissues” value (pCREB) was “increase in statistically significant sense”, the “relative expression amount of BDNF in hippocampal tissues” value (BDNF and mBDNF) was “increase in statistically significant sense” and the “relative expression amount of mBDNF in hippocampal tissues” value (BDNF and mBDNF) was “increase in statistically significant sense”.
